{"source": "patent US20250215071A1", "about": "“Novel Mcl-1 inhibitor and combination of Mcl-1 and a BH3 mimetic, such as a Bcl-2 inhibitor” (NETRIS PHARMA, priority 2022, published 2025)", "key": {"[1]": {"tested_on": "HCC70", "experiment": "Propidium iodide incorporation (Incucyte Zoom) in HCC70 cells with netrin-1 silencing", "format": "cell-based", "settings": "up to 24 hours", "protocol": "FIG. 10. Cell death assessment by combining netrin-1 silencing and Navitoclax. To assess cell death, Propidium iodide (PI) incorporation, normalized to cell confluence, was followed in real-time up to 24 hours by Incucyte Zoom technology for scramble (siCTRL), netrin-1 (siNet), scramble (siCTRL) and Navitoclax, netrin-1 (siNet) and Navitoclax.\nIn addition, breast cancer HCC70 were transfected with scramble (siCTRL) or netrin-1 (siNet) targeting siRNAs. 24 hours after transfection, cells were detached, plated again in 24-well plate and treated with 0.5 µM of the Bcl-2/Bcl-XL/Bcl-w inhibitor Navitoclax (Tse et al, Cancer Res, 2008; Shoemaker et al, Clin Cancer Res, 2008). To assess cell death, propidium iodide (PI) incorporation, normalized to cell confluence, was followed in real-time up to 24 hours by Incucyte Zoom technology."}, "[2]": {"settings": "cited from earlier work"}, "[3]": {"tested_on": "caspase-9", "experiment": "UNC5B-induced caspase-9 activity in HeLa UNC5B cells", "format": "cell-based, Human", "settings": "Dox; 18 hours", "protocol": "FIG. 5. UNC5B-mediated Mcl-1 degradation induces MOMP and caspase-9 activation. (A): UNC5B over-expression triggers Mitochondrial Outer Membrane Permeabilization (MOMP) in a COMMD2/CRL3 complex-dependent manner. Hela cells were transfected with scramble (siCTRL), COMMD2 (siCOMMD2-1) or RBX1 (siRBX1-1) siRNAs. 24 hours after transfection, cells were treated with Dox and after further 18 hours mitochondrial depolarization quantified by 5′,6,6′-tetrachloro-1,1′,3,3′-tetraethylbenzimi-dazolylcarbocyanine iodide (JC-1) dye staining, using NucleoCounter NC3000 (n=3, **** p<0.0001, ordinary two-way ANOVA with Tukey's multiple comparisons test). Values are given as means±SEM. (B,C,D): Apoptotic cell death induced by UNC5B over-expression requires caspase-9. HeLa UNC5B cells were transfected with scramble (siCTRL) or caspase-9 (siCASP9) siRNAs and 24 hours later treated with the indicated concentrations of Dox. Propidium iodide (PI)-positive cells were assessed in real-time up to 48 hours using Incucyte Zoom instrument (C) (n=[…], Kolmogorov-Smirnov test). DNA fragmentation was assessed by FACS analysis (D) and caspase-3 was measured using caspase-3 fluorometric kit (E), both 18 hours after treatment (n=[…], **** p<0.0001, ordinary two-way ANOVA with Šidák's multiple comparisons test). Values are given as means±SEM. […] HeLa UNC5B cells were treated with Dox and 18 hours later caspase-9 and -8 activities were assessed by fluorometric kit, using specific substrates (n=3, ^nsp>0.05, *p<0.05, Mann-Whitney test, one-tailed). […] 24 hours later, cells were treated with Dox and caspase-9 activity was measured by fluorometric kit (n=3, **** p<0.0001, ordinary two-way ANOVA with Tukey's multiple comparisons test). […] 18 hours after treatment, caspase-9 activity was assessed with the fluorometric kit (n=5, *p<0.05, ** p<0.01, *** p<0.001, **** p<0.0001, ordinary two-way ANOVA with Tukey's multiple comparisons test). […] Cells were then treated with Dox and Mcl-1 protein was evaluated by western blot. […]"}, "[4]": {"tested_on": "UNC5B-induced cell death", "experiment": "UNC5B-induced cell death under inhibition of neddylation", "format": "cell-based"}}, "data": [{"smiles": "CC1(C)CCC(c2ccc(Cl)cc2)=C(CN2CCN(c3ccc(C(=O)NS(=O)(=O)c4ccc(N[C@H](CCN5CCOCC5)CSc5ccccc5)c(S(=O)(=O)C(F)(F)F)c4)cc3)CC2)C1", "note": "[Navitoclax]", "values": [{"measurement": "cell death induction (PI incorporation)", "setting": "[1]; 0.5 µM alone (siCTRL)", "value": "slight effect on cell death induction"}, {"measurement": "cell death induction (PI incorporation)", "setting": "[1]; 0.5 µM combined with netrin-1 silencing (siNet)", "value": "quickly and strongly triggered apoptosis"}]}, {"smiles": "Cc1c(-c2c(-c3ccc(F)o3)sc3ncnc(O[C@H](Cc4ccccc4OCc4ccnn4CC(F)(F)F)C(=O)O)c23)ccc(OCCN2CCN(C)CC2)c1Cl", "note": "[S63845]", "values": [{"measurement": "tolerability", "setting": "[2]; Brennan et al., 2018", "value": "overall good tolerability"}, {"measurement": "B-cell population", "setting": "[2]; during treatment (Brennan et al., 2018)", "value": "decrease in the B-cell population"}]}, {"smiles": "NS(=O)(=O)OC[C@@H]1C[C@@H](n2ccc3c(N[C@H]4CCc5ccccc54)ncnc32)C[C@@H]1O", "note": "[pevonedistat]", "values": [{"measurement": "UNC5B-induced caspase-9 activation", "setting": "[3]", "value": "sufficient to prevent UNC5B-induced caspase-9 activation"}, {"measurement": "UNC5B-induced cell death", "setting": "[4]", "value": "prevented UNC5B-induced cell death"}]}]}
